Measurements from patent publication US20050267051A1, “Antineoplastic and anti-HIV conjugates of steroid acid and nucleosides” (priority 2003, published 2005).
≈ marks a conversion by molar mass, not a printed value. Like-named read-outs stand apart in the source and are kept apart here.

Legend:
H9/ddC cells = experiment: Growth inhibition assay, ddC resistant H9 cells; type: cell-based, human; conditions: 10 μg/ml
Source text: (§1) Cell growth inhibitory activity against human lymphoblasts (H9 cells) for compounds (4), (5) and (6) is depicted in FIG. 1. […] Conjugate (4) was further tested against ddC resistant H9 cells (H9/ddC cells that have reduced thymidine and deoxycytidine kinase activities); HL60, HL60/araC (human promyclocytic leukemic cell lines, parental and araC resistant), H29, H29/FU (human colon adenocarcinomas, parental and FU resistant), MCF7 (human breast carcinoma) and BL5 (Burkitt lymphoma cell line). At 10 μg/ml, it produced 85-100% growth inhibition in all of these human tumor cell lines.
(§2) Growth inhibition assays were performed in triplicate by seeding 5×10^4 Cells/ml in 24-well plates (Costar). Test compounds were added, and the trypan blue-excluding cells were counted after 72 hrs of incubation at 37° C. IC50 values were calculated from growth inhibition curves as described in Agarwal, R. P., and Mian, A. Biochem. Pharmacol. 1991, 42, 905 and Agarwal, Ram P., Han, Tieran, Fernandez, Manilyn. Biochemical and Biophysical Research com in un ica lions. 1999, 262, 657.

H9 cells [1] = experiment: Growth inhibition (anti-growth) assay on H9 cells, trypan blue exclusion count; type: cell-based, human; conditions: for IC50: Homo sapiens, H9
Source text: Anti-growth activity on H-9 cells is summarized by IC50 data (drug concentration measured by […]g/ml needed to inhibit 50% of the cell growth), derived from dose-response curves.
as §1, §2

MCF7 = experiment: Growth inhibition assay, MCF7; type: cell-based, human; conditions: 10 μg/ml; MCF7 breast carcinoma
Source text: as §1, §2

HIV-1 = experiment: Anti-HIV assay with T4 lymphocytes (CEM-SS cell line), XTT, protection against HIV cytopathic effects; type: cell-based; conditions: for Anti-HIV activity (in words): in vitro anti-HIV bioassays; for EC50: read-out: EC50 (50% effective concentration against HIV cytopathic effects)
Source text: (§3) The ester conjugates were subjected to standard in vitro anti-HIV bioassays [see: with T4 lymphocytes (CEM-SS cell line) according to the standard assays described, for example in Bourinbaiar AS, Lee-Huang S. Contraception 1995; 51:319-22 and http://www.iaen.org/files.cgi/7014_Bourinbaiar.pdf. Drug efficacy (EC50) was obtained by adding HIV and AZT conjugate to the cell to measure protection of the drug against HIV-induced celldeath. The cytotoxicity (IC50) data was obtained from adding only the conjugate to the cell to measure cell death caused by the agent. The therapeutic index (TI) is the ratio IC50/EC50. […] These two active agents appear to have less cytotoxicity and weaker anti-HIV potency than AZT. […] This intriguing profile of conjugate (4) prompted further evaluations of its growth inhibition in comparison to (5) and (6).
(§4) The anti-HIV assay was carried out with T4 lymphocytes (CEM-SS cell line) through the following standard procedure. Agent is dissolved in dimethyl sulfoxide and diluted 1:100 in cell culture medium before preparing serial half-log 10 dilutions. T4 lymphocytes are added and after a brief interval HIV-1 is added, resulting in a 1:200 final dilution of the compound. Uninfected cells with the compound serve as a toxicity control, and infected and uninfected cells without the compound serve basic controls. Cultures are incubated at 37° C. in a 5% carbon dioxide atmosphere for 6 days. The tetrazolium salt, XTT, is added to all wells, and the cultures are incubated to allow formazan color development. Individual wells are analyzed spectrophotometrically to quantitate formazan production, and in addition are viewed microscopically for detection of viable cells and confirmation of protective activity.
(§5) Drug-treated virus-infected cells are compared with drug-treated non-infected cells and with other appropriate controls (untreated infected and untreated non-infected cells, drug-containing wells without cells, etc.) on the same plate. Data are reviewed in comparison with other tests done at the same time and a determination concerning activity is made (Table 1).

H9 cells [2] = experiment: Apoptosis assay, Annexin V-FITC and propidium iodide staining, flow cytometry; type: cell-based, human; conditions: 10 μg/ml, 48 hrs; FIG. 4
Protocol: In the experiments, fractions of cells in various stages of apoptotic death were assessed according to standard assays [see, e.g., http://www.blackwell-synergy.com/links/doi/10.1046/j.1365-2184.2003.00283.x/abs/; http://64.177.90.157/pfpc/Fluoride_Machalinski—2003.pdf and http://jpet.aspetjournals.org/cgi/content/full/310/1/126 by simultaneous Annexin V and propidium iodide staining using flow cytometry.
Apoptosis experiments were carried out by treating H9 Cells […] with compound 4 (10 μg/ml), AZT (10 μg/ml) or cholenic acid (10 μg/ml) for 48 hrs. Cells were collected by centrifugation, washed with growth medium, and stained with Annexin V-FITC and propidium iodide (apoptosis dilution kit; Sigma), according to the manufacturer's protocol, and the fluorescence was analyzed via flow cytometry.

HL60/araC = experiment: Growth inhibition assay, HL60/araC; type: cell-based, human; conditions: 10 μg/ml, araC resistant
Source text: as §1, §2

[3] = system: T4 lymphocytes (CEM-SS cell line); experiment: Cytotoxicity in uninfected CEM-SS cells (toxicity control of anti-HIV assay); type: cell-based
Source text: as §3, §4, §5

H29/FU = experiment: Growth inhibition assay, H29/FU; type: cell-based, human; conditions: 10 μg/ml, FU resistant
Source text: as §1, §2

HL60 = experiment: Growth inhibition assay, HL60; type: cell-based, human; conditions: 10 μg/ml; HL60 promyelocytic leukemic, parental
Source text: as §1, §2

[4] = Cytotoxicity in uninfected CEM-SS cells (toxicity control of anti-HIV assay); type: cell-based; conditions: human, uninfected CEM-SS cells (T4 lymphocytes); CEM-SS cell line, uninfected; average of two repeat experiments; read-out: IC50 (50% inhibitory concentration for cell growth), cytotoxicity
Source text: as §3, §4, §5

[5] = FIG. 1, 72 hrs incubation, read-out: IC50, cell growth inhibitory activity against human lymphoblasts (H9 cells)
[6] = H-9 cells, derived from dose-response curves, read-out: IC50 (drug concentration needed to inhibit 50% of the cell growth), anti-growth activity on H-9 cells

For “3′-Azido-3′-deoxythymidine-5′-[3β-acetyloxy-22,23-bisnor-5-cholenate] [compound 4]”, which growth inhibition (H9/ddC cells) is on record?
Its growth inhibition is 85-100%.

And the “cytotoxicity after 24 hrs drug exposure” value (H9 cells [1]; 5 μg/ml, 24 hrs exposure, FIG. 3)?
Its value is “Substantially more cytotoxicity”.

What about the “cytotoxicity after 72 hrs drug exposure” value (H9 cells [1]; 5 μg/ml, 72 hrs exposure, FIG. 3) of the same compound?
Its value is “only gave a plateau”.

And the “cell growth inhibition after 4 hrs drug exposure” value (H9 cells [1]; 1 or 5 μg/ml, 4 hrs exposure, FIG. 3)?
Its value is “did not produce any inhibition”.

What about the “cell growth inhibition after 8 hrs drug exposure” value (H9 cells [1]; 1 or 5 μg/ml, 8 hrs incubation, FIG. 3) of the same compound?
The value was 20-25%.

And the “IC50, cell growth inhibitory activity against human lymphoblasts (H9 cells)” value (H9 cells [1]; FIG. 1, 72 hrs incubation)?
The value was ~2.5 µg/mL.

And the “Inhibition of growth of H9 cells (in words)” value (H9 cells [1]; FIG. 2, 5 μg/ml for (4))?
Its value is “prevented growth of H9 cells almost completely”.

What about the growth inhibition (MCF7) of the same compound?
Its growth inhibition is 85-100%.

What about the “EC50 (50% effective concentration against HIV cytopathic effects)” value (HIV-1; CEM-SS cell line, average of two repeat experiments) of the same compound?
Its value is “inactive”.

And the “Anti-HIV activity (in words)” value (HIV-1)?
The value was “no anti-HIV activity”.

What about the “cells induced to apoptosis” value (H9 cells [2]) of the same compound?
The value was ~90%.

And the growth inhibition (HL60/araC)?
The growth inhibition was 85-100%.

What about the IC50 ([3]; CEM-SS cell line, uninfected, average of two repeat experiments, read-out: IC50 (50% inhibitory concentration for cell growth), cytotoxicity) of the same compound?
The IC50 was 4700 nM.

And the “Cytotoxicity (in words)” value ([3]; CEM-SS cells, conjugate only)?
The value was “high cytotoxicity”.

What about the growth inhibition (H29/FU) of the same compound?
Its growth inhibition is 85-100%.

What about the growth inhibition (HL60) of the same compound?
The growth inhibition was 85-100%.

For `Cc1cn(C2C[C@H](N=[N+]=[N-])C(COC(=O)[C@@H]3OC(C)(C)O[C@@]34CCC3C5CCC6=CC(=O)C=CC6(C)C5C(O)CC34C)O2)c(=O)[nH]c1=O` (stereo partly drawn) [compound 6, 3′-Azido-3′-deoxythymidine-5′-[11β-hydroxy-17,20α-isopropylidenedioxy-3-oxo-1,4-pregnadiene-21-oate]], which IC50 (H9 cells [1]; [5]) is on record?
The IC50 was ~10 µg/mL (≈ 15 µM).

What about the EC50 (HIV-1; Human immunodeficiency virus 1, CEM-SS cell line, average of two repeat experiments) of the same compound?
The EC50 was 65 nM.

What about the “Anti-HIV activity (in words)” value (HIV-1) of the same compound?
The value was “active”.

What about the IC50 at 6 days [4] of the same compound?
Its IC50 at 6 days is 12000 nM.

With `CC(=O)O[C@H]1CCC2(C)C(=CCC3C2CCC2(C)C(C(C)C(=O)OCC4CCC(n5cc(C)c(=O)[nH]c5=O)O4)CCC32)C1` (stereo partly drawn) [E, 3β-Acetyloxy-23,24-bisnor-5-cholenic acid, 5′-(3′-deoxythymidinyl) ester] as the compound, how does the IC50 (H9 cells [1]; [6]) read?
Its IC50 is 3 µg/mL (≈ 5.03 µM).

Which IC50 (H9 cells [1]; [6]) does the source give for `Cc1cn(C2C[C@H](N=[N+]=[N-])C(COC(=O)CCC(C)C3CCC4C5C(=O)CC6CC(=O)CCC6(C)C5CC(=O)C34C)O2)c(=O)[nH]c1=O` (stereo partly drawn) [B, 5β-Cholanic acid-3,7,12-trione, 5′-(3′-azido-3′-deoxythymidinyl) ester] here?
The IC50 was 30 µg/mL (≈ 46 µM).

With `COC(OC)C(=O)[C@H]1[C@H](C(=O)OC[C@H]2O[C@@H](n3cc(C)c(=O)[nH]c3=O)C[C@@H]2N=[N+]=[N-])C[C@H]2[C@@H]3CCC4=CC(=O)C=C[C@]4(C)[C@H]3[C@@H](O)C[C@@]21C` [compound 5, 3′-Azido-3′-deoxythymidine-5′-[21,21-dimethoxy-3,20-dioxo-11β-hydroxy-1,4-pregnadiene-16α-carboxylate]] as the compound, how does the IC50 (H9 cells [1]; [5]) read?
Its IC50 is ~12 µg/mL (≈ 17.6 µM).

What about the EC50 (HIV-1; Human immunodeficiency virus 1, CEM-SS) of the same compound?
The EC50 was 35 nM.

And the “Anti-HIV activity (in words)” value (HIV-1)?
The value was “active”.

For `CC(=O)O[C@H]1CCC2(C)C(=CCC3C2CCC2(C)C(C(C)C(=O)OCC4C=CC(n5cc(C)c(=O)[nH]c5=O)O4)CCC32)C1` (stereo partly drawn) [D, 3β-Acetyloxy-23,24-bisnor-5-cholenic acid, 5′-(3′-deoxy-2′,3′-didehydrothymidinyl) ester], which IC50 (H9 cells [1]; [6]) is on record?
Its IC50 is 4 µg/mL (≈ 6.73 µM).

Which IC50 (H9 cells [1]; [6]) does the source give for `Cc1cn(C2C[C@H](N=[N+]=[N-])C(COC(=O)CCC(C)C3CCC4C5CCC6CCCCC6(C)C5CCC34C)O2)c(=O)[nH]c1=O` (stereo partly shown) [A, 5-Cholanic acid, 5′-(3′-azido-3′-deoxythymidinyl) ester] here?
Its IC50 is 30 µg/mL (≈ 49.2 µM).

Which IC50 (H9 cells [1]; [6]) does the source give for `CC(=O)O[C@@H]1CCC2(C)C(CCC3C2CCC2(C)C(C(C)CCC(=O)OCC4OC(n5cc(C)c(=O)[nH]c5=O)C[C@@H]4N=[N+]=[N-])CCC32)C1` (stereo partly drawn) [C, 3α-Acetyloxy-5[…]-Cholanic acid, 5′-(3′-azido-3′-deoxythymidinyl) ester] here?
The IC50 was 4 µg/mL (≈ 5.99 µM).
